Measured values as given in article PMC5607274, “An iterative compound screening contest method for identifying target protein inhibitors using the tyrosine-protein kinase Yes” (Scientific Reports, 2017).

biological target: T1, human recombinant Yes [a.a. 2–543 (end)] (Homo sapiens, UniProt P07947); experiment: ADP-Glo kinase assay, inhibition rates of Yes phosphorylation activity (first and second screening); type: biochemical; conditions: first screening; mean of n = 4 wells; 10 μmol L−1 compound
T1 construct: human recombinant Yes [a.a; 2–543 (end)]; purchased BPS Bioscience 40488
Outline: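 ADP-Glo luminescence measured inhibition of human recombinant Yes (a.a. 2–543) phosphorylation activity. In the first screen, each compound ran in 4 wells and inhibition rates were averaged. The second screen retested hits as compounds dissolved from fresh powder.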

T1 sequence (P07947 2-543): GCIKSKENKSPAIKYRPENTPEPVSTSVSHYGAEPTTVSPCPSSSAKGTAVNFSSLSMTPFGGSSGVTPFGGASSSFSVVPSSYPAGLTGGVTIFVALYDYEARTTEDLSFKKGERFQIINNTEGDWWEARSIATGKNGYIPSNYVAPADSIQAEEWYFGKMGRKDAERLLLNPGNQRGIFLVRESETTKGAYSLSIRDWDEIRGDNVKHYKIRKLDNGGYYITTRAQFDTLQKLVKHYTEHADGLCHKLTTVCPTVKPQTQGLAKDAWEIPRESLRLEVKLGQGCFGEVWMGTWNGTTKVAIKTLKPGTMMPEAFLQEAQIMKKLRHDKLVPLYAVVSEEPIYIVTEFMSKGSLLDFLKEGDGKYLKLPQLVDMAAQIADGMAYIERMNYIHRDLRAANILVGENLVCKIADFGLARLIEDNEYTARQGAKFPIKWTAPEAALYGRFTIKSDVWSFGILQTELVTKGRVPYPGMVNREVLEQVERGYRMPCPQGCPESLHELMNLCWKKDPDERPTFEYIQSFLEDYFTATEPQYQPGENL

SMILES	First screening IR (inhibition rate) [%]
Clc1ccc2nc(NC3=NCN(CCN4CCOCC4)CN3)nc(-c3ccccc3)c2c1 [Compound Z57440306]	4
COc1ccc(-n2cc(-c3ccccc3)c3c(NCCCO)ncnc32)cc1 [Compound Z57455872]	1
COCCNc1ncnc2c1c(-c1ccccc1)cn2-c1ccc(OC)cc1 [Compound Z57455912]	16
CCOc1ccc(-n2cc(-c3ccccc3)c3c(NCCO)ncnc32)cc1 [Compound Z57456164]	20
CCS(=O)(=O)Nc1ccc(C2=NN(S(=O)(=O)c3ccc(C)cc3)C(c3ccco3)C2)cc1 (stereo not shown) [Compound Z57514609]	23
O=C(COc1ccc(-c2cc(-c3ccccc3)c3cc(Cl)ccc3n2)cc1)NCCO [Compound Z57805545]	39
Clc1ccc(Oc2cccc(-c3nc4c5ccccc5c5ccccc5c4[nH]3)c2)cc1 [Compound Z57984419]	2
C(=C\c1ccccc1)/CN1CCN(c2ncnc3c2cnn3Cc2ccccc2)CC1 [Compound Z58287009]	0
Cc1nn(C2CCS(=O)(=O)C2)c2nc(C3CC3)cc(C(=O)NCc3ccc4c(c3)OCO4)c12 (stereo not shown) [Compound Z60362928]	5
Cc1nn(C2CCS(=O)(=O)C2)c2nc(C3CC3)cc(C(=O)Nc3ccc(C(N)=O)cc3)c12 (stereo not shown) [Compound Z60779201]	17
COc1cc(NC(=O)c2ccccc2)c(OC)cc1NC(=O)COc1ccc(-c2nnco2)cc1 [Compound Z62746884]	46
CN(CC(=O)NCc1ccco1)C(=O)/C=C/c1ccc(-n2ccnc2)cc1 [Compound Z62804747]	2
CN(CC(=O)N1CCN(CC(=O)NC(C)(C)C)CC1)c1ncnc2cc(-c3ccc(F)cc3)sc12 [Compound Z64655268]	6
CCN(c1ccc(-c2csc(Nc3ccc(OC)cc3)n2)cc1)S(C)(=O)=O [Compound Z64779311]	-4
CC(C)(C)NC(=O)CN1CCN(C(=O)CSc2nc3ccccc3c(=O)n2-c2ccccc2)CC1 [Compound Z65695011]	57
O=C(Nc1nc2c(s1)CN(Cc1ccccc1)CC2)c1cc2c(nc3sccn32)s1 [Compound Z68435865]	-4
COc1ccc(-c2cc(NC(=O)C3CCC(=O)N3)ccc2OC(F)F)cc1 (stereo not shown) [Compound Z70775126]	-6
Cc1ccc(S(=O)(=O)N(C)c2ccc(OCC(=O)Nc3ccc4oc(C)nc4c3)cc2)cc1 [Compound Z70909087]	17
CCCOc1ccc(OCC(=O)Nc2ccc3oc(C)nc3c2)cc1 [Compound Z70909650]	11

SMILES	First screening IR (inhibition rate) [%]
CCN(CC)c1ccc([N+](=O)[O-])cc1C(=O)Nc1ccc2nc(N3CCOCC3)sc2c1 [Compound Z70970124]	9
COc1ccc(CCN2CC(C(=O)Nc3c(-c4ccccc4)nc4ccc(C)cn34)CC2=O)cc1OC (stereo not shown) [Compound Z70997275]	-15
CN(C1CCS(=O)(=O)C1)S(=O)(=O)c1ccc(Cl)c(Cl)c1 (stereo not shown) [Compound Z71311982]	-2
O=C(NCCOc1ccc(Cl)cc1)c1ccc2nc[nH]c2c1 [Compound Z73381327]	12
Cc1cc(/C=C/C(=O)N2CCOCC2)c(C)n1-c1ccnn1C(C)C [Compound Z79434439]	15
CCN(CC)CCNC(=O)c1ccc(NC(=O)C2CCN(c3ncnc4sc(C)c(C)c34)CC2)cc1 [Compound Z79604730]	-1
Cc1ccc(-c2csc3ncn(CC(=O)N4CCN(CC(=O)NC(C)(C)C)CC4)c(=O)c23)cc1C [Compound Z81619452]	-8
NS(=O)(=O)c1ccc2nc(-c3ccc4c(c3)-c3ccccc3C4)cn2c1 [Compound Z82176567]	27
CCN1CCC(NC(=O)C2CCN(S(=O)(=O)c3c(C)c(C)cc(C)c3C)CC2)CC1 [Compound Z85145044]	6
CCCCN(S(C)(=O)=O)S(=O)(=O)c1ccc(OC)cc1 [Compound Z85927834]	1
O=C(COC(=O)c1ccco1)Nc1nc2ccc([N+](=O)[O-])cc2s1 [Compound Z85929771]	10
O=C(Cn1c(CN2CCOCC2)nc2sc3c(c2c1=O)CCCC3)Nc1ccc(OCc2ccccc2)cc1 [Compound Z86108588]	16
CC(NC(=O)Nc1ccc(F)cc1F)c1ccc(-n2cncn2)cc1 (stereo not shown) [Compound Z86212654]	-3
CS(=O)(=O)c1ccc(Cl)c(S(C)(=O)=O)c1 [Compound Z87002147]	0
O=C(Nc1nc(-c2ccccc2)cs1)c1cc2ccccc2s1 [Compound Z87524039]	20
O=C(NCC1(N2CCCCC2)CCCCC1)c1ccc(S(=O)(=O)NC2CC2)cc1 [Compound Z87649109]	-3
N#Cc1ccc(CN2CCN(Cc3c(-c4ccccc4)nc4sccn34)CC2)cc1 [Compound Z89137945]	-31
O=S(=O)(c1ccccc1Cl)N1CCN(Cc2cn3ccccc3n2)CC1 [Compound Z89155296]	15
C=CCN(CC(=O)Nc1ccc(S(=O)(=O)N(CC)CC)cc1)Cc1cccs1 [Compound Z89203975]	16

Continued, values first:

First screening IR (inhibition rate) [%]	SMILES
-9	O=C(N/N=C/c1ccco1)c1cc(-c2ccc(Br)s2)[nH]n1 [Compound Z57393573]
5	Fc1ccc(-n2cc(-c3ccccc3)c3c(N4CCOCC4)ncnc32)cc1 [Compound Z57455467]
-6	OCCNc1ncnc2c1c(-c1ccccc1)cn2-c1ccc(F)cc1 [Compound Z57455953]
-8	COc1ccc(-n2cc(-c3ccccc3)c3c(NCCOCCO)ncnc32)cc1 [Compound Z57456127]
9	Cc1ccc(Cn2ncc3c(NN)ncnc32)cc1 [Compound Z57458515]
-12	Oc1ccc(F)cc1C1=NNC(c2cc(Br)cc3c2OCOC3)C1 (stereo not shown) [Compound Z57604399]
7	Cc1cc(=O)n2c3ccccc3n(CC(O)CN3CCN(CCOc4ccc(Cl)cc4)CC3)c2c1C#N (stereo not shown) [Compound Z57724322]
7	OCCNc1nc2ccccc2n1-c1ncnc2sc3c(c12)CCCC3 [Compound Z57981090]
2	Cl.N#Cc1c(-c2ccc(Cl)cc2)nc2ccccc2c1-c1ccccc1 [Compound Z57989376]
-12	NNc1ncnc2c1cnn2Cc1ccccc1 [Compound Z58286928]
-1	Cc1cccnc1NC(=O)c1ccc(CSc2ccccc2)cc1 [Compound Z58490632]
2	Cn1cc(/C=N/Nc2ccnc3cc(Cl)ccc23)cn1 [Compound Z65478686]
2	CCc1ccc(S(=O)(=O)N(CC)C2CCS(=O)(=O)C2)cc1 (stereo not shown) [Compound Z65566827]
0	CC(c1ccc(S(N)(=O)=O)cc1)N(C)S(=O)(=O)c1cc(Cl)cc(Cl)c1 (stereo not shown) [Compound Z65599853]
-1	Cn1c(SCC(=O)N2c3ccccc3OCC2c2ccccc2)nnc1-c1ccncc1 (stereo not shown) [Compound Z65769442]
-3	COc1ccc(-c2nnc(SCC(=O)N3c4ccccc4OCC3c3ccccc3)n2C)cc1 (stereo not shown) [Compound Z65980497]

First screening IR (inhibition rate) [%]	SMILES
1	Cc1cc(C)c(C)c(S(=O)(=O)N(C)C2CCS(=O)(=O)C2)c1C (stereo not shown) [Compound Z71311814]
7	CC(C)n1ncc2c(C(=O)N3CCN(CC(=O)N4CCOCC4)CC3)cc(-c3ccccc3)nc21 [Compound Z73457343]
9	CC(C)(C)C(=O)NCc1ccc(C(=O)COC(=O)c2cc3c(s2)CCC3)s1 [Compound Z73973253]
-25	COc1ccc(S(=O)(=O)N(C)Cc2ccc3c(c2)OCO3)cc1Br [Compound Z74745150]
5	CCOC(=O)c1cnc(SCC(=O)OC/C(O)=C(\C#N)c2nc3ccccc3[nH]2)nc1N [Compound Z76798588]
8	CC1CCc2c(sc3nc4c(c(-c5ccco5)c23)-c2ccccc2CC4)C1.Cl (stereo not shown) [Compound Z76887050]
-9	Cc1noc(C)c1CC(=O)NN=C(c1ccccc1)c1ccccc1 [Compound Z79575803]
6	CCCCOc1ccc(C(=O)NCC(=O)NCC(c2cccs2)N2CCOCC2)cc1 (stereo not shown) [Compound Z84671779]
2	Cc1ccc(Nc2ncnc3sc4c(c23)CCCC4)c(O)c1 [Compound Z85929120]
5	COc1ccc(-c2cc3c4ccccc4oc4nc(=N)c(C#N)c([nH]2)c43)cc1 [Compound Z85934217]
-5	CC(NC(=O)c1ccc(-n2cnc3ccccc32)cc1)c1ccc(S(N)(=O)=O)cc1 (stereo not shown) [Compound Z87656555]
-35	O=C(NCC(c1ccccc1Cl)N1CCCC1)C1CCN(C(=O)c2cccs2)CC1 (stereo not shown) [Compound Z87671607]
-1	N#Cc1ccccc1CSCCNC(=O)c1ccc2nc[nH]c2c1 [Compound Z88237436]
-8	O=C(c1cccnc1N1CCCC1)N1CCN(C(=O)C2COc3ccccc3O2)CC1 (stereo not shown) [Compound Z88468962]
-38	CC(NCc1ccc(C(=O)Nc2ccccc2)cc1)c1ccc2c(c1)OCCO2 (stereo not shown) [Compound Z89008298]
-1	O=S(=O)(c1ccc(Br)cc1Cl)N1CCN(Cc2cn3ccccc3n2)CC1 [Compound Z89065969]
